Assay results from US12195559B2, “CDCA1-derived peptide and vaccine containing same” (ONCOTHERAPY SCIENCE, INC., priority 2018, dated 2025).
“Also recorded” adds a separate entry of the source.

What was measured:
peptide-pulsed C1R-A01 [1] = experiment: In vitro CTL induction, IFN-gamma ELISPOT assay; format: cell-based, human; settings: CD8-positive T cells from HLA-A*01:01-positive donors stimulated with DCs pulsed with 20 micro-g/ml peptide, target C1R-A01 pulsed vs not pulsed
Experimental: C1R cells (C1R-A01) that constitutively express HLA-A*01:01 was used as cells for stimulating CTLs. A cDNA encoding the HLA-A*01:01 gene was amplified by PCR and introduced into an expression vector. C1R cells incorporated with HLA-A*01:01 gene expression vector were cultured for two weeks under drug selection with a medium containing G418 (Invitrogen). After diluting G418-resistant C1R cell suspension, the cells were seeded into a 96-well plate, and subjected to selective culture for another 30 days with a medium containing G418. The HLA-A*01:01 expression in C1R cells was verified by flow cytometric analysis.
Monocyte-derived dendritic cells (DCs) were used as the antigen-presenting cell to induce a cytotoxic T lymphocyte (CTL) specific to peptides presented on human leukocyte antigens (HLAs). DCs were prepared in vitro as already reported in the literature (Nakahara S et al., Cancer Res 2003, 63(14): 4112-8). Specifically, peripheral-blood mononuclear cells (PBMCs) collected from healthy volunteers (HLA-A*01:01-positive) with the Ficoll-Paque plus solution (Pharmacia) were seeded into plastic tissue culture dishes (Corning) to allow attachment of monocytes in PBMCs to the dishes. Then, the cells were cultured in the presence of 1000 IU/ml granulocyte macrophage colony-stimulating factor (R&D System) and 1000 IU/ml interleukin (IL)-4 (R&D System) for seven days. As medium, an AIM-V medium (Invitrogen) containing inactivated AB type serum (MP Biomedicals) was used (2% ABS/AIM-V medium). […] Peptide pulsing was performed in the AIM-V medium. These peptide-pulsed DCs were inactivated by X-ray irradiation (20 Gy), and mixed in a 1:20 ratio with autologous CD8-positive T cells obtained by using the CD8 Positive Isolation Kit (Invitrogen) (1.5×10^4 DCs and 3×10^5 CD8-positive T cells), and cultured in a 48-well plate (Corning). The volume of 2% ABS/AIM-V medium was 0.5 ml per 1 well, and IL-7 (R&D System) was added (final concentration: 10 ng/ml) to the well. Two days after the start of culture, IL-2 (Novartis) was added thereto (final concentration: 20 IU/ml). On 7th day of culture and 14th day of culture, CD8-positive T cells were further stimulated with peptide-pulsed DCs. The DCs were prepared before use by the same method as above. On 21st day or thereafter (after the third DC stimulation), IFN-gamma production of CD8-positive T cells against peptide-pulsed C1R-A01 was confirmed by enzyme-linked immunospot (ELISPOT) assay (Tanaka H et al., Br J Cancer 2001, 84(1): 94-9; Umano Y et al., Br J Cancer 2001, 84(8): 1052-7; Uchida N et al., Clin Cancer Res 2004, 10(24): 8577-86; Suda T et al., Cancer Sci 2006, 97(5): 411-9; Watanabe T et al., Cancer Sci 2005, 96(8): 498-506).
(§1) C1R-A01 pulsed with a peptide was prepared as target cells. The IFN-gamma ELISPOT assay and IFN-gamma ELISA were performed according to the procedures recommended by the assay kit manufacturer.

peptide-pulsed C1R-A01 [2] = experiment: IFN-gamma ELISA of CTL clones established by limiting dilution; format: cell-based, human; settings: CTL clones against peptide-pulsed vs non-pulsed target cells
Experimental: CTLs were propagated using a method similar to that reported by Riddell et al. (Walter E A et al., N Engl J Med 1995, 333(16): 1038-44; Riddell S R et al., Nat Med 1996, 2(2): 216-23). In a flask for tissue culture (FALCON), the CTLs were cultured in 5% ABS/AIM-V medium (culture solution volume: 25 ml/flask) with two types of human B lymphoblastoid cell lines (5×10^6 cells each) treated with mitomycin C and anti-CD3 antibody (BD biosciences, final concentration: 40 ng/ml). On the next day after the culturing was started, IL-2 was added to the culture (IL-2 final concentration: 120 IU/ml). On days 5, 8, and 11, the medium was changed to 5% ABS/AIM-V medium containing 60 IU/ml IL-2 (IL-2 final concentration: 30 IU/ml) (Tanaka H et al., Br J Cancer 2001, 84(1): 94-9; Umano Y et al., Br J Cancer 2001, 84(8): 1052-7; Uchida N et al., Clin Cancer Res 2004, 10(24): 8577-86; Suda T et al., Cancer Sci 2006, 97(5): 411-9; Watanabe T et al., Cancer Sci 2005, 96(8): 498-506).
After CTLs were induced in vitro, the CTLs were seeded at 1 cell/well or 10 cells/well in a 96-well round-bottomed microplate (Corning). The CTLs were cultured in 5% ABS/AIM-V medium (culture solution volume: […]) with two types of human B lymphoblastoid cell lines (1×10^4 cells each) treated with mitomycin C, anti-CD3 antibody (final concentration: 30 ng/ml), and IL-2 (final concentration: 125 IU/ml). After 10 days, […] of 5% ABS/AIM-V medium containing 500 IU/ml IL-2 was added to the culture.
as §1

[3] = test system: COS7 cells expressing CDCA1 and HLA-A*01:01; experiment: IFN-gamma production of CTL clone against target cells expressing CDCA1 and HLA-A*01:01; format: cell-based, African green monkey
Experimental: as §1
The cDNA encoding the CDCA1 or HLA-A*01:01 gene were amplified by PCR. Each PCR amplified product was incorporated into an expression vector. Using Lipofectamine 2000 (Invitrogen), either or both of the CDCA1 gene expression vector and the HLA-A*01:01 gene expression vector were introduced into COS7 cells, an HLA-negative cell line, according to the procedure recommended by the manufacturer. On the next day of the gene introduction, the COS7 cells were separated using Versene (Invitrogen) and used as target cells.

DSPEKLKNY (a peptide derived from CDCA1) [SEQ ID NO: 34, CDCA1-derived 9mer peptide, start position 246]
Peptide-specific IFN-gamma production (CTL induction) (peptide-pulsed C1R-A01 [1]; listed as CDCA1-A01-9-246): Peptide-specific IFN-gamma production relative to the control well was observed; also recorded: able to induce CTLs that showed peptide-specific IFN-gamma production

FREACRETY (a peptide derived from CDCA1) [SEQ ID NO: 33, CDCA1-derived 9mer peptide, start position 130]
Peptide-specific IFN-gamma production (CTL induction) (peptide-pulsed C1R-A01 [1]; listed as CDCA1-A01-9-130): Peptide-specific IFN-gamma production relative to the control well was observed; also recorded: able to induce CTLs that showed peptide-specific IFN-gamma production

ARQEVVEKY (a peptide derived from CDCA1) [SEQ ID NO: 35, CDCA1-derived 9mer peptide, start position 268]
Peptide-specific IFN-gamma production (CTL induction) (peptide-pulsed C1R-A01 [1]; listed as CDCA1-A01-9-268): Peptide-specific IFN-gamma production relative to the control well was observed; also recorded: able to induce CTLs that showed peptide-specific IFN-gamma production

ETYMEFLWQY (a peptide derived from CDCA1) [SEQ ID NO: 8, CDCA1-derived 10mer peptide, start position 136]
Peptide-specific IFN-gamma production of CTL clones (peptide-pulsed C1R-A01 [2]; listed as CDCA1-A01-10-136): showed peptide-specific IFN-gamma production | Peptide-specific IFN-gamma production (CTL induction) (peptide-pulsed C1R-A01 [1]; listed as CDCA1-A01-10-136): Peptide-specific IFN-gamma production relative to the control well was observed; also recorded: able to induce CTLs that showed peptide-specific IFN-gamma production | IFN-gamma production of CTL clone against target cells ([3]; COS7 cells expressing both CDCA1 and HLA-A*01:01): showed IFN-gamma production | IFN-gamma production of CTL clone against negative control cells ([3]; COS7 cells expressing either CDCA1 or HLA-A*01:01, listed as CDCA1-A01-10-136): no significant IFN-gamma production was observed; also recorded: did not show significant IFN-gamma production

QLVQLYQK (QLEVQLYQK; a peptide derived from CDCA1) [SEQ ID NO: 25, CDCA1-derived 9mer peptide, start position 290]
Peptide-specific IFN-gamma production (CTL induction) (peptide-pulsed C1R-A01 [1]; listed as CDCA1-A01-9-290): Peptide-specific IFN-gamma production relative to the control well was observed; also recorded: able to induce CTLs that showed peptide-specific IFN-gamma production

MMPVNSEVMY (a peptide derived from CDCA1) [SEQ ID NO: 9, CDCA1-derived 10mer peptide, start position 66]
Peptide-specific IFN-gamma production (CTL induction) (peptide-pulsed C1R-A01 [1]; listed as CDCA1-A01-10-66): No IFN-gamma production; also recorded: peptide-specific IFN-gamma production was not observed

YMEFLWQY (a peptide derived from CDCA1) [SEQ ID NO: 1, CDCA1-derived 8mer peptide, start position 138]
Peptide-specific IFN-gamma production (CTL induction) (peptide-pulsed C1R-A01 [1]; listed as CDCA1-A01-8-138): Peptide-specific IFN-gamma production relative to the control well was observed; also recorded: able to induce CTLs that showed peptide-specific IFN-gamma production

IYMRALQIVY (a peptide derived from CDCA1) [SEQ ID NO: 13, CDCA1-derived 10mer peptide, start position 48]
Peptide-specific IFN-gamma production of CTL clones (peptide-pulsed C1R-A01 [2]; listed as CDCA1-A01-10-48): showed peptide-specific IFN-gamma production | Peptide-specific IFN-gamma production (CTL induction) (peptide-pulsed C1R-A01 [1]; listed as CDCA1-A01-10-48): Peptide-specific IFN-gamma production relative to the control well was observed; also recorded: able to induce CTLs that showed peptide-specific IFN-gamma production

SCQLEVQLY (a peptide derived from CDCA1) [SEQ ID NO: 37, CDCA1-derived 9mer peptide, start position 288]
Peptide-specific IFN-gamma production (CTL induction) (peptide-pulsed C1R-A01 [1]; listed as CDCA1-A01-9-288): Peptide-specific IFN-gamma production relative to the control well was observed; also recorded: able to induce CTLs that showed peptide-specific IFN-gamma production

VYGIRLEHFY (a peptide derived from CDCA1) [SEQ ID NO: 10, CDCA1-derived 10mer peptide, start position 56]
Peptide-specific IFN-gamma production of CTL clones (peptide-pulsed C1R-A01 [2]; listed as CDCA1-A01-10-56): showed peptide-specific IFN-gamma production | Peptide-specific IFN-gamma production (CTL induction) (peptide-pulsed C1R-A01 [1]; listed as CDCA1-A01-10-56): Peptide-specific IFN-gamma production relative to the control well was observed; also recorded: able to induce CTLs that showed peptide-specific IFN-gamma production
